Results on three molecules are retold here after patent US9481669B2, “Pladienolide pyridine compounds and methods of use” (Eisai R&D Management Co., Ltd., priority 2014, dated 2016).

Structures are written as SMILES. Entries after “also recorded” stand apart in the source; their conditions may differ. Where two headings read alike, the source gives them in different places.

Series [1] concerns Pre-EIF4A1 and SLC25A19 expression in Nalm-6 SF3B1^K700E xenograft tumors. Description: PK/PD testing in Nalm-6 mouse xenograft model. Format: in vivo, CB17-SCID mice. The note with it: single oral dose. The method, then: Pharmacokinetics (PK)/pharmacodynamics (PD) of Compound 2 were also analyzed in the Nalm-6 mouse xenograft model. Nalm-6 SF3B1^K700E isogenic cells (human pre B-cell line, 10×10^6 cells) were subcutaneously implanted into the flank of female CB17-SCID mice. Mice were administered a single oral dose of 10 mg/kg Compound 2 (10% ethanol, 5% TWEEN-80, 85% saline), and the tumors were collected at the indicated times post administration for analysis.
RNA was isolated using RiboPure™ RNA purification kit (Ambion®) and used for qPCR analysis. The RNA was retrotranscribed according to the instructions of the SuperScript® VILO™ cDNA synthesis kit (Invitrogen™), and 0.04 μl of cDNA was used for quantitative PCR (qPCR). qPCR for pre-mRNA EIF4A1 and mature mRNA […] and PK evaluation were performed as reported previously (Eskens, F. A. et al. Phase I pharmacokinetic and pharmacodynamic study of the first-in-class spliceosome inhibitor E7107 in patients with advanced solid tumors. Clin Cancer Res. 19, 6296-6304, doi:10.1158/1078-0432.CCR-13-0485 (2013)). All animal studies were carried out according to the H3 Biomedicine Guide for the Care and Use of Laboratory Animals.
Pharmacokinetics (PK)/pharmacodynamics (PD) of Compound 1 were also analyzed in the Nalm-6 mouse xenograft model. […]

The nature of series [2]: Mouse pharmacokinetic (PK) study. The format is in vivo, CD-1 mice. The note with it: for oral bioavailability and pharmacokinetic properties (in words): mouse model, IV and PO dosing; for Vd: read-out: Vss; for AUC: read-out: AUCfinite. The procedure: Compound 2 was dosed at 5 mg/kg IV (intravenous) or 10 mg/kg PO (oral administration) to CD-1 mice. Following administration, blood samples were collected at pre-determined time points from five mice via serial bleeding of the tail vein. Blood was collected at 0.083 (0.167 PO only), 0.5, 1, 2, 4, 6, 8, and 24 hours post administration. The blood samples were centrifuged at 5000 RPM for 5 minutes to collect plasma within 30 minutes of blood collection. After extraction, samples were assayed using LCMS. PK parameters were calculated using non-compartmental analysis in WinNonlin v6.3.
Compound 1 was dosed at 5 mg/kg IV or 12 mg/kg PO to CD-1 mice. Following administration, blood samples were collected at pre-determined time points from five mice via serial bleeding from the tail vein. Blood was collected at 0.083 (0.167 PO only), 0.5, 1, 2, 4, 6, 8, and 24 hours post-dose. The blood samples were centrifuged at 5000 RPM for 5 minutes to collect plasma within 30 minutes of blood collection. After extraction, samples were assayed using LCMS. PK parameters were calculated using non-compartmental analysis in WinNonlin v6.3.
Compound 3 was dosed at 5.964 mg/kg IV or 13.307 mg/kg PO to CD-1 mice. Following administration, blood samples were collected at pre-determined time points from five mice via serial bleeding from the tail vein. Blood was collected at 0.083 (0.167 PO only), 0.5, 1, 2, 4, 6, 8, and 24 hours post-dose. The blood samples were centrifuged at 5000 RPM for 5 minutes to collect plasma within 30 minutes of blood collection. After extraction, samples were assayed using LCMS. PK parameters were calculated using non-compartmental analysis in WinNonlin v6.3.
Compound 4 was dosed at 5 mg/kg IV or 10 mg/kg PO to CD-1 mice. Following administration, blood samples were collected at pre-determined time-points from five mice via serial bleeding from the tail vein. Blood was collected at 0.083 (0.167 PO only), 0.5, 1, 2, 4, 6, 8, and 24 hours post-dose. The blood samples will be centrifuged at 5000 RPM for 5 minutes to collect plasma within 30 minutes of blood collection. After extraction, samples were assayed using LCMS. PK parameters were calculated using non-compartmental analysis in WinNonlin v6.3.

Series [3] concerns Nalm-6 SF3B1^K700E isogenic cells (human pre B-cell line) xenograft. Nature of the series: Nalm-6 SF3B1^K700E mouse xenograft efficacy model. Format: in vivo, CB17-SCID mice. The note with it: orally dosed daily for 14 days (QD×14 PO). The method, then: The efficacy of Compound 2 was tested in a mouse xenograft model. Nalm-6 SF3B1^K700E isogenic cells (human pre B-cell line, 10×10^6 cells) were subcutaneously implanted into the flank of female CB17-SCID mice. Mice were treated with Compound 2 (10% ethanol, 5% TWEEN-80, 85% saline) or vehicle control. The animals were orally dosed daily for 14 days (QD×14 PO) at the amounts indicated in FIG. 2 and were monitored until they reached either of the following endpoints: 1) excessive tumor volume measured three times a week (tumor volume calculated by using the ellipsoid formula: (length×width^2)/2); or 2) development of any health problems such as paralysis or excessive body weight loss. All animal studies were carried out according to the H3 Biomedicine Guide for the Care and Use of Laboratory Animals.
The efficacy of Compound 1 was tested in a mouse xenograft model. […] The animals were orally dosed daily for 14 days (QD×14 PO) with 7.5 mg/kg or 10 mg/kg Compound 1 or vehicle and were monitored until they reached either of the following endpoints: 1) excessive tumor volume measured three times a week (tumor volume calculated by using the ellipsoid formula: (length×width^2)/2); or 2) development of any health problems such as paralysis or excessive body weight loss. […]

[4] abbreviates: mouse, plasma, CD-1 mice, 5 mg/kg IV (Table 5).
[5] abbreviates: mouse, plasma, CD-1 mice, 12 mg/kg PO.
[6] abbreviates: mouse, plasma, CD-1 mice, 5.964 mg/kg IV.
Setting [7] is: mouse, plasma, CD-1 mice, 13.307 mg/kg PO.
The mark [8] stands for this setting: CD-1 mice, 10 mg/kg PO (Table 7).
The mark [9] stands for this setting: mouse, plasma, CD-1 mice, 5 mg/kg IV (Table 7).
Where [10] appears, read: mouse, plasma, CD-1 mice, 10 mg/kg PO (Table 7).

By AUC(0-inf) is commonly meant total exposure, with the tail of the curve extrapolated. The low end stands for low exposure, the high end for high exposure. In general, AUC(0-t) refers to exposure summed from dosing to a finite time, without extrapolation to infinity. Higher therefore signals high exposure. As a reminder, the half-life is the time in which the quantity being followed falls by half. Read a low half-life as rapid decline. For orientation: Cmax means the peak of the concentration-time curve. One may read the Tmax as the time at which the peak concentration occurs. What is called bioavailability is the share of a dose that reaches the circulation, judged against a reference dose that is usually intravenous. Low values mean poor availability, high ones good availability. Take `C/C(=C\C=C\[C@@H](C)c1ccccn1)[C@H]1OC(=O)C[C@H](O)CC[C@@](C)(O)[C@@H](OC(=O)N2CCN(C3CCCCCC3)CC2)/C=C/[C@@H]1C` [Compound 1, (2S,3S,6S,7R,10R,E)-7,10-dihydroxy-3,7-dimethyl-12-oxo-2-((R,2E,4E)-6-(pyridin-2-yl)hepta-2,4-dien-2-yl)oxacyclododec-4-en-6-yl 4-cycloheptylpiperazine-1-carboxylate]: the “PD responses (fold change in Pre-EIF4A1 and SLC25A19 expression in tumor)” value in series [1] was “showed PD responses at a tolerated dose”. Moreover, the AUC0-inf/D in series [2] (CD-1 mice, 5 mg/kg IV (Table 5)) is 934.15 ng · h/mL/D. In series [2] (CD-1 mice, 12 mg/kg PO), the AUC0-inf/D came to 487.06 ng · h/mL/D and the Cmax/D turned out to be 141.47 ng/mL/D. In addition, the “oral bioavailability and pharmacokinetic properties (in words)” value in series [2] is “showed oral bioavailability and favorable pharmacokinetic properties; also recorded: possess oral bioavailability and favorable pharmacokinetic properties”. Further, in series [2] (setting [4]), the AUC(0-inf) was 4670 ng·h/mL, the AUC(0-t) turned out to be 4450 ng·h/mL, the half-life was 2.54 h and the Vd is 2.1 L/kg. Moreover, the clearance in series [2] (mouse, plasma, CD-1 mice, 5 mg/kg IV (Table 5), read-out: CL (converted)) was 17.8 mL/min/kg. In addition, in series [2] (setting [5]), the AUC(0-inf) is 6230 ng·h/mL, the AUC(0-t) worked out at 6210 ng·h/mL, the concentration peaked (Cmax) at 1810 ng/mL and the Tmax was found to be 0.5 h. Further, in series [2] (setting [5]), the bioavailability was determined as 52.1% and the half-life is 3 h. Further, the “efficacy / tumor growth in xenograft mouse model” value in series [3] was “efficacious when administered via the oral route and reduced tumor growth”.

Molecule `C/C(=C\C=C\[C@@H](C)c1ccccn1)[C@H]1OC(=O)C[C@H](O)CC[C@@](C)(O)[C@@H](OC(=O)N2CCC(N3CCCCCC3)CC2)/C=C/[C@@H]1C` [Compound 3, (2S,3S,6S,7R,10R,E)-7,10-dihydroxy-3,7-dimethyl-12-oxo-2-((R,2E,4E)-6-(pyridin-2-yl)hepta-2,4-dien-2-yl)oxacyclododec-4-en-6-yl 4-(azepan-1-yl)piperidine-1-carboxylate] had an AUC0-inf/D in series [2] (CD-1 mice, 5.964 mg/kg IV) of 1.047 μg/mL * hr/D. Also, in series [2] (CD-1 mice, 13.307 mg/kg PO), the AUC0-inf/D was 0.615 μg/mL * hr/D and the “BA (%)” value is on record as 58.758%. Moreover, the “oral bioavailability and pharmacokinetic properties (in words)” value in series [2] is “showed oral bioavailability and favorable pharmacokinetic properties; also recorded: possess oral bioavailability and favorable pharmacokinetic properties”. For the same molecule, in series [2] (setting [6]), the AUC(0-inf) stood at 6240 ng·h/mL, the half-life was 3.66 h, the AUC turned out to be 6210 ng·h/mL and the Vd stood at 2.98 L/kg. Further, the clearance in series [2] (mouse, plasma, CD-1 mice, 5.964 mg/kg IV, read-out: CLtot (converted)) was 15.9 mL/min/kg. In series [2] (setting [7]), the AUC(0-inf) was found to be 8190 ng·h/mL, the concentration peaked (Cmax) at 1570 ng/mL, the Tmax amounted to 2 h and the half-life is 3.32 h. Further, in series [2] (setting [7]), the AUC was 8140 ng·h/mL.

`C/C(=C\C=C\[C@@H](C)c1ccccn1)[C@H]1OC(=O)C[C@H](O)CC[C@@](C)(O)[C@@H](OC(=O)N2CCC(N3CCCCC3)CC2)/C=C/[C@@H]1C` [Compound 4, (2S,3 S,6S,7R,10R,E)-7,10-dihydroxy-3,7-dimethyl-12-oxo-2-((R,2E,4E)-6-(pyridin-2-yl)hepta-2,4-dien-2-yl)oxacyclododec-4-en-6-yl[1,4′-bipiperidine]-1′-carboxylate] returned an AUC0-inf/D in series [2] (CD-1 mice, 5 mg/kg IV (Table 7)) of 1.325 ug/mL * hr/D. For the same molecule, in series [2] (setting [8]), the AUC0-inf/D turned out to be 0.795 ug/mL * hr/D and the “BA (%)” value is 60.024%. For the same molecule, the “oral bioavailability and pharmacokinetic properties (in words)” value in series [2] is “showed oral bioavailability and favorable pharmacokinetic properties; also recorded: possess oral bioavailability and favorable pharmacokinetic properties”. For the same molecule, in series [2] (setting [9]), the AUC(0-inf) amounted to 6620 ng·h/mL, the AUC(0-t) was 6610 ng·h/mL, the half-life is 3.01 h and the Vd was 1.89 L/kg. The clearance in series [2] (mouse, plasma, CD-1 mice, 5 mg/kg IV (Table 7), read-out: CLtot (converted)) is 12.6 mL/min/kg. In series [2] (setting [10]), the AUC(0-inf) stood at 7950 ng·h/mL, the AUC(0-t) was 7910 ng·h/mL, the Cmax amounted to 1250 ng/mL and the Tmax was determined as 2 h. In addition, the half-life in series [2] (setting [10]) was 2.98 h.
